Experimental data taken from ChEMBL document CHEMBL1148457, “Comparative molecular active site analysis (CoMASA). 1. An approach to rapid evaluation of 3D QSAR” (J Med Chem, 2004).

These molecules were tested against T1, Corticosteroid-binding globulin (Homo sapiens, UniProt P08185) (assay: Binding affinity to human CBG receptor (corticosteroid-binding globulins)).
T1 sequence (P08185 whole entry): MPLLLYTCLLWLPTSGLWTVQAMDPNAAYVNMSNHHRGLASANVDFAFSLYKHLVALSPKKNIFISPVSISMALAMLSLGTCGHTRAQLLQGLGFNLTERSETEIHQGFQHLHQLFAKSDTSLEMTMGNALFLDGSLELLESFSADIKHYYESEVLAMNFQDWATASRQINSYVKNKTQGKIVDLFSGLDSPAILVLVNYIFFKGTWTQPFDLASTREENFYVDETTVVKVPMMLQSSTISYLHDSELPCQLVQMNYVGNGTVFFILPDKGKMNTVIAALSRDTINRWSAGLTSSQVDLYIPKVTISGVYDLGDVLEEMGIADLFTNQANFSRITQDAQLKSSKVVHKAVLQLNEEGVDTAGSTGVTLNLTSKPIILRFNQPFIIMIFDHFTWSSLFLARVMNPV
With `CC(=O)[C@@]1(O)[C@H](O)C[C@H]2[C@@H]3CCC4=CC(=O)CC[C@]4(C)[C@H]3CC[C@@]21C` the Ki was 562 nM. In the case of `CC(=O)[C@H]1CC[C@H]2[C@@H]3CCC4=CC(=O)CC[C@@H]4[C@H]3CC[C@]12C`, the Ki is reported as 151 nM. `CC(=O)[C@H]1CC[C@H]2[C@@H]3CCC4=CC(=O)CC[C@]4(C)[C@H]3C(=O)C[C@]12C` was tested, and the Ki was 166 nM. Work on `CC1C[C@@]2(C)C(=CC1=O)CC[C@@H]1[C@@H]2C(=O)C[C@@]2(C)[C@H]1CC[C@]2(O)C(=O)CO` (stereo partly specified) yielded a Ki of 20.4 nM. In the case of `CC(=O)C1CCC2C3C[C@H](C)C4=CC(=O)CCC4(C)C3CCC12C` (stereo partly specified), the Ki is reported as 75.9 nM. For `C[C@@H]1C[C@@]2(C)C(=CC1=O)CC[C@H]1[C@@H]3CC[C@](O)(C(=O)CO)[C@@]3(C)C[C@H](O)[C@@]12F`, the Ki was 1580 nM. Molecule `C[C@]12CCC(=O)C=C1CCC1[C@@H]2C(=O)C[C@@]2(C)[C@H]1CC[C@]2(O)C(=O)CO` (single isomer, unassigned) [CORTISONE] has a Ki of 129 nM. With `C[C@]12C=CC(=O)C=C1CCC1[C@@H]2[C@@H](O)C[C@@]2(C)[C@H]1CC[C@]2(O)C(=O)CO` (single isomer, unassigned) [PREDNISOLONE] the Ki was 30.9 nM. `C[C@]12C[C@H](O)[C@H]3[C@@H](CCC4=CC(=O)CC[C@@]43C)[C@@H]1CC[C@@H]2C(=O)CO` (stereo in doubt; form 1) [CORTICOSTERONE] gave a Ki of 63.1 nM. `C[C@]12C[C@H](O)[C@H]3[C@@H](CCC4=CC(=O)CC[C@@]43C)[C@@H]1CC[C@@H]2C(=O)CO` (stereo in doubt; form 2) [CORTICOSTERONE] gave a Ki of 13.2 nM. In the case of `C[C@]12CCC(=O)C=C1CC[C@@H]1[C@@H]2[C@@H](O)C[C@]2(C=O)[C@@H](C(=O)CO)CC[C@@H]12` [ALDOSTERONE], the Ki is reported as 525 nM. `C[C@]12CC[C@H](O)C[C@@H]1CC[C@@H]1[C@@H]2CC[C@]2(C)[C@@H](O)CC[C@@H]12` [ANDROSTANEDIOL] showed a Ki of 10000 nM. With `C[C@]12CCC(=O)C=C1CC[C@@H]1[C@@H]2CC[C@]2(C)C(=O)CC[C@@H]12` [ANDROSTENEDIONE] the Ki was 1740 nM. `C[C@]12CCC(=O)C=C1CC[C@@H]1[C@@H]2CC[C@@]2(C)[C@H]1CC[C@]2(O)C(=O)CO` [CORTODOXONE] showed a Ki of 13.2 nM. With `C[C@]12CC[C@H]3[C@@H](CCC4=CC(=O)CC[C@@]43C)[C@@H]1CC[C@@H]2C(=O)CO` [DESOXYCORTICOSTERONE] the Ki was 22.4 nM. With `C[C@]12CC[C@@H]3c4ccc(O)cc4CC[C@H]3[C@@H]1CC[C@@H]2O` [ESTRADIOL] the Ki was 10000 nM. `C[C@]12CC[C@@H]3c4ccc(O)cc4CC[C@H]3[C@@H]1C[C@@H](O)[C@@H]2O` [ESTRIOL] was tested, and the Ki was 10000 nM. With `C[C@]12CC[C@@H]3c4ccc(O)cc4CC[C@H]3[C@@H]1CCC2=O` [ESTRONE] the Ki was 10000 nM. Molecule `CC(=O)OCC(=O)[C@@]1(O)CC[C@H]2[C@@H]3CCC4=CC(=O)CC[C@]4(C)[C@H]3[C@@H](O)C[C@@]21C` [HYDROCORTISONE ACETATE] has a Ki of 28.2 nM. `CC(=O)[C@@]1(O)CC[C@H]2[C@@H]3CC[C@@H]4C[C@H](O)CC[C@]4(C)[C@H]3CC[C@@]21C` [HYDROXYPREGNENOLONE] was tested, and the Ki was 10000 nM. `CC(=O)[C@@]1(O)CC[C@H]2[C@@H]3CCC4=CC(=O)CC[C@]4(C)[C@H]3CC[C@@]21C` [HYDROXYPROGESTERONE] gave a Ki of 18.2 nM. In the case of `C[C@]12CC[C@H]3[C@@H](CCC4=CC(=O)CC[C@@H]43)[C@@H]1CC[C@@H]2O` [NANDROLONE], the Ki is reported as 724 nM. For `C[C@]12CC[C@H](O)CC1=CC[C@@H]1[C@@H]2CC[C@]2(C)C(=O)CC[C@@H]12` [PRASTERONE], the Ki was 10000 nM. For `CC(=O)[C@H]1CC[C@H]2[C@@H]3CC=C4C[C@@H](O)CC[C@]4(C)[C@H]3CC[C@]12C` [PREGNENOLONE], the Ki was 5890 nM. In the case of `CC(=O)[C@H]1CC[C@H]2[C@@H]3CCC4=CC(=O)CC[C@]4(C)[C@H]3CC[C@]12C` [PROGESTERONE], the Ki is reported as 41.7 nM. Work on `C[C@]12CC[C@H]3[C@@H](CCC4=CC(=O)CC[C@@]43C)[C@@H]1CC[C@@H]2O` [TESTOSTERONE] yielded a Ki of 191 nM.
